Measured values published in patent publication US20220380310A1, “P2X7R ANTAGONISTS” (priority 2019, published 2022).
Where a name gives a salt, the structure may show the parent alone.

These compounds were tested against T1, Human P2X1 receptor (P2X1R) (Homo sapiens, UniProt P51575) (assay: Receptor-mediated calcium entrance assay (Calcium Assay), P2X1R transfected HEK-293 cells). Conditions: ATP 20 μM stimulus.
T1 construct: expressed in transfected cells; host or cells: HEK-293
T1 sequence (P51575 1-399): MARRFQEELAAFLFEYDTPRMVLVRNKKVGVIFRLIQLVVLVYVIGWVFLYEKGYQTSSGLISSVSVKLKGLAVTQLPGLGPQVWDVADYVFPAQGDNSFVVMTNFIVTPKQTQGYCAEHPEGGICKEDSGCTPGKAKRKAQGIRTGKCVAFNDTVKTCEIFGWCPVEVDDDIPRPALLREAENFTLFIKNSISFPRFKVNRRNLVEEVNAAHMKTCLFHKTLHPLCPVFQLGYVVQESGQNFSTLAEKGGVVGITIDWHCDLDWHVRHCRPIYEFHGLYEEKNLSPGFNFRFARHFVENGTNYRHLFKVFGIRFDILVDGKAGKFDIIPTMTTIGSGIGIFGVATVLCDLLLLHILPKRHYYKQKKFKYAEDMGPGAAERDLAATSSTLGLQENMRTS
Format: cell-based
Excerpt: Human P2X1 receptor (P2X1R) is a member of P2X family. […] Thus, the calcium assay was used. In the calcium assay, P2X receptor activation leads to opening of ion channels, which increases intracellular calcium concentration. The increased intracellular calcium concentration can be detected by a calcium indicator dye such as Fluo-4 or Fluo-8. Molecular Probes™ Fluo-4, AM (Cat. No. F14201 from Fisher Scientific) was used in the assay. The procedures were similar as described in the Yo-Pro-1 assay until day 4. The construct of P2X1R for transient transfection to HEK-293 cells was the courtesy from Dr. Richard J. Evans laboratory (J. Biol. Chem. 279:9043-9055). After transfection and expression, on day 4 cells were washed twice by Ca-HBSS (The composition (in mM) was NaCl 135, HEPES 10, D-glucose 10, KCl 5.4, CaCl2 2, and MgCl2 1, pH to 7.4 by NaOH) and incubated in dye loading solution (The solution contained 2.5 μM Fluo-4, 1 mM probenecid, and 1× PowerLoad (Cat. No. P10020 from Fisher Scientific) in Ca-HBSS) for 70 minutes at 37° C. Then the extracellular loading dye was washed away and cells were incubated at Ca-HBSS containing 1 mM probenecid for 30 minutes. Before the final steps, probenecid was washed away with Ca-HBSS. The assay was performed by adding 25 μl of Ca-HBSS followed by 25 μl of various test compounds. At this point, the base level of fluorescence was obtained through the microplate reading—the base microplate reading for this assay. At the end, the stimulus (ATP at 20 μM was the final concentration for P2X1R) was added to activate the P2X1R. Activation of P2X1R opened the channel to allow influx of calcium, which was represented by fluorescence increases that were measured by the microplate device with excitation at 475 nm and emission wavelength in the range of 500-550 nm. The data were analyzed the same way as described before: The result of each well was first normalized by its corresponding base microplate reading. Then, the negative control signal was subtracted from. In the negative control, the test compound and the stimulus were replaced by Ca-HBSS. […] An average of six highest values of the plate (AVG) were considered as 100% and the value of each well was divided by AVG and presented as the relative values in percentages.

| SMILES | Percentage of activity remains in the presence of the compound at 5 μM, P2X1R (Calcium Assay) |
| --- | --- |
| Cc1nc(N=Nc2ccc(S(=O)(=O)[O-])cc2S(=O)(=O)[O-])c(COP(=O)([O-])[O-])c(C=O)c1O.[Na+].[Na+].[Na+].[Na+] [PPADS, Pyridoxalphosphate-6-azophenyl-2′,4′-disulfonic acid tetrasodium, reference compound] | 26.7% |

Same assay, conditions: HEK293, compound at 5 μM, ATP 20 μM stimulus, read-out: Percentage of activity remains in the presence of the compound at 5 μM, P2X1R (Calcium Assay)

| remaining activity at 5 µM | SMILES |
| --- | --- |
| 44.3% | O=S(=O)(c1ccccc1)C1CN(S(=O)(=O)c2ccc(N3CCOCC3)cc2)C1 [#11] |
| 66.3% | O=C(CCc1ccccc1)NC1CCCN(S(=O)(=O)c2ccc(N3CCC(C(F)(F)F)CC3)cc2)C1 (centres unmarked) [#42] |
| 47.8% | O=C(CCc1ccccc1)NC1CCCN(c2ccc(S(=O)(=O)Nc3ccccc3)cc2)C1 (centres unmarked) [#50] |
| 59.2% | CC(C)(C)OC(=O)N1CCN(c2ccc(S(=O)(=O)N3CCC(C(=O)NCCc4ccccc4)CC3)cc2)CC1 [#22] |
| 56.3% | O=C(CCc1ccccc1)N1CCN(S(=O)(=O)c2ccc(N3CCCC3)cc2)CC1 [#35] |
| 65.6% | CC(C)S(=O)(=O)c1ccc(N2CCCC(NC(=O)CCc3ccccc3)C2)cc1 (centres unmarked) [#7] |
| 66.3% | O=C(NCCc1ccccc1)C1CCCN(S(=O)(=O)c2ccc(N3CCOCC3)cc2)C1 (centres unmarked) [#24] |
| 52% | O=C(CCc1ccccc1)NC1CCCN(S(=O)(=O)c2ccc(N3CCCCC3)c(Cl)c2)C1 (centres unmarked) [#45] |
| 54.2% | O=C(CCc1ccccc1)NC1CCCN(S(=O)(=O)c2ccc(N3CCCC3)cc2)C1 (centres unmarked) [#13] |
| 51.5% | O=C1CCC(N2Cc3c(NC(=O)CCc4ccccc4)cccc3C2=O)C(=O)N1 (centres unmarked) [#16] |
| 39.1% | COc1ccc(S(=O)(=O)N2CCCC(NC(=O)CCc3ccccc3)C2)cc1 (centres unmarked) [#2] |
| 50.8% | CCCCNc1ccc(S(=O)(=O)N2CCC(C(=O)O)CC2)cc1 [#27] |
| 43.9% | CC(C)(C)OC(=O)N1CCN(c2ccc(S(=O)(=O)N3CCN(C(=O)CCc4ccccc4)CC3)cc2)CC1 [#31] |
| 48.4% | O=C(CCc1ccccc1)NC1CCCN(c2ccc(S(=O)(=O)N3CCCCC3)cc2)C1 (centres unmarked) [#54] |
| 75.4% | O=C(NCCc1ccccc1)C1CCN(S(=O)(=O)c2ccc(N3CCCCC3)cc2)CC1 [#20] |
| 52.8% | O=C(CCc1ccccc1)NC1CCCN(S(=O)(=O)c2ccc(N3CCOCC3)cc2)C1 (centres unmarked) [#12] |
| 59.6% | O=C(CCc1ccccc1)NC1CCCN(S(=O)(=O)c2ccc(N3CCCCC3)cc2)C1 (centres unmarked) [#5] |
| 59.3% | O=C(CCc1ccccc1)N1CCN(S(=O)(=O)c2ccc(N3CCCCC3)cc2)CC1 [#34] |
| 44.9% | O=C(CCc1ccccc1)N1CCN(S(=O)(=O)c2ccc(NC3CCCCC3)cc2)CC1 [#33] |
| 92.8% | O=C(CCc1ccccc1)NC1CCCN(S(=O)(=O)c2ccc(-n3cc(Br)cn3)cc2)C1 (centres unmarked) [#9] |
| 49% | CC(C)(C)OC(=O)N1CCN(c2ccc(S(=O)(=O)N3CCCC(C(=O)NCCc4ccccc4)C3)cc2)CC1 (centres unmarked) [#36] |
| 43.8% | O=C(CCc1ccccc1)NC1CCCN(S(=O)(=O)c2ccc(N3CCC(Oc4ccccc4)CC3)cc2)C1 (centres unmarked) [#38] |
| 60.9% | COCCOc1ccc(S(=O)(=O)N2CCCC(NC(=O)CCc3ccccc3)C2)cc1 (centres unmarked) [#17] |
| 74.5% | CC(C)OC1CCN(c2ccc(S(=O)(=O)N3CCCC(NC(=O)CCc4ccccc4)C3)cc2)CC1 (centres unmarked) [#39] |
| 63.9% | CN(C)c1ccc(S(=O)(=O)N2CCCC(NC(=O)CCc3ccccc3)C2)cc1 (centres unmarked) [#14] |
| 51.5% | O=S(=O)(c1ccccc1)C1CN(S(=O)(=O)c2ccc(N3CCCCC3)cc2)C1 [#10] |

| remaining activity at 5 µM | SMILES |
| --- | --- |
| 56.5% | CS(=O)(=O)c1ccc(N2CCCC(NC(=O)CCc3ccccc3)C2)cc1 (centres unmarked) [#1] |
| 55.4% | CCOc1ccc(S(=O)(=O)N2CCCC(NC(=O)CCc3ccccc3)C2)cc1 (centres unmarked) [#37] |
| 67% | O=C(CCc1ccccc1)NC1CCCN(S(=O)(=O)Cc2ccc(Br)cc2)C1 (centres unmarked) [#8] |
| 66.2% | NS(=O)(=O)c1ccc(N2CCCC(NC(=O)CCc3ccccc3)C2)cc1 (centres unmarked) [#53] |
| 57.1% | O=C(CCc1ccccc1)NC1CCCN(S(=O)(=O)c2ccc(F)c(Cl)c2)C1 (centres unmarked) [#43] |
| 50.2% | O=C(NCCc1ccccc1)C1CCN(S(=O)(=O)c2ccc(N3CCCC3)cc2)CC1 [#21] |
| 65.8% | CC(C)N(C(C)C)S(=O)(=O)c1ccc(N2CCCC(NC(=O)CCc3ccccc3)C2)cc1 (centres unmarked) [#49] |
| 67.7% | O=C(CCc1ccccc1)NC1CCCN(S(=O)(=O)c2ccc(N3CCC(F)(F)CC3)cc2)C1 (centres unmarked) [#46] |
| 70.1% | O=C(CCc1ccccc1)N1CCN(S(=O)(=O)c2ccc(F)cc2)CC1 [#30] |
| 39% | CC1CCN(c2ccc(S(=O)(=O)N3CCCC(NC(=O)CCc4ccccc4)C3)cc2)CC1 (centres unmarked) [#40] |
| 33.3% | O=C(CCc1ccccc1)NC1CCCN(S(=O)(=O)c2ccc(F)cc2)C1 (centres unmarked) [#3] |
| 40.5% | CC1CCCN(c2ccc(S(=O)(=O)N3CCCC(NC(=O)CCc4ccccc4)C3)cc2)C1 (centres unmarked) [#44] |
| 46.7% | CC(C)(C)OC(=O)N1CCC(C2CCN(c3ccc(S(=O)(=O)N4CCCC(NC(=O)CCc5ccccc5)C4)cc3)CC2)CC1 (centres unmarked) [#41] |
| 62.5% | O=C(CCc1ccccc1)N1CCNCC1 [#29, hydrochloride] |
| 70.1% | CCCCNc1ccc(S(=O)(=O)N2CCCC(NC(=O)CCc3ccccc3)C2)cc1 (centres unmarked) [#15] |
| 66.1% | O=C(NCCc1ccccc1)C1CCCN(S(=O)(=O)c2ccc(N3CCCC3)cc2)C1 (centres unmarked) [#25] |
| 46.7% | O=C(CCc1ccccc1)N1CCN(S(=O)(=O)c2ccc(N3CCOCC3)cc2)CC1 [#32] |
| 53.8% | O=C(CCc1ccccc1)NC1CCCN(c2ccc(S(=O)(=O)N3CCCC3)cc2)C1 (centres unmarked) [#55] |
| 50.1% | CC1CCCCN1c1ccc(S(=O)(=O)N2CCCC(NC(=O)CCc3ccccc3)C2)cc1 (centres unmarked) [#47] |
| 75.5% | O=C(NCCc1ccccc1)C1CCN(S(=O)(=O)c2ccc(N3CCOCC3)cc2)CC1 [#23] |
| 43.7% | O=C(CCc1ccccc1)NC1CCCN(S(=O)(=O)c2ccc(OCc3ccccc3)cc2)C1 (centres unmarked) [#4] |
| 62.3% | CN1CCN(c2ccc(S(=O)(=O)N3CCCC(NC(=O)CCc4ccccc4)C3)cc2)CC1 (centres unmarked) [#18] |
| 63.1% | O=C(CCc1ccccc1)NC1CCCN(c2ccc(S(=O)(=O)NC3CCCCC3)cc2)C1 (centres unmarked) [#51] |
| 51% | CC(C)COc1ccc(S(=O)(=O)N2CCCC(NC(=O)CCc3ccccc3)C2)cc1 (centres unmarked) [#6] |
| 62.6% | NC(=O)c1cc(Br)cc(N2CCOCC2)c1 [#28] |
| 63.4% | O=C(CCc1ccccc1)NC1CCCN(c2ccc(S(=O)(=O)NCc3ccco3)cc2)C1 (centres unmarked) [#52] |
